Test results taken from ChEMBL document CHEMBL1201862, “PubChem BioAssay data set” (2004).
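Cells were grown in 96-well plates and exposed to each compound for 48 hours at five concentrations; endpoints were interpolated linearly between bracketing concentrations, or set to the highest concentration if not reached. Here, GI50 denotes the concentration required for 50% inhibition of growth.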 The source made the active and inactive calls. No stated cut-off is given here; in the data, active = GI50 up to about 1.1 µM and inactive = higher. Non-standard residues stand in square brackets, D forms with d. Residues, ends and D or L forms follow the SMILES beside them. ξ: configuration not given here. *: point of attachment. ξF = NC(Cc1ccccc1)C(=O)O; Cbz = O=C(OCc1ccccc1)*

Legend:
Assay in all cases: NCI-60 cell line screen, 48 h
786-0 = test system: 786-0
A549 = test system: A549
HL-60 = test system: HL-60
HOP-92 = test system: HOP-92
Hs-578T = test system: Hs-578T
IGROV-1 = test system: IGROV-1
K562 = test system: K562
M14 = test system: M14
MDA-MB-435 = test system: MDA-MB-435
MDA-N = test system: MDA-N
NCI-H226 = test system: NCI-H226
SF-295 = test system: SF-295
SF-539 = test system: SF-539
SK-MEL-2 = test system: SK-MEL-2
SN12C = test system: SN12C
SNB-19 = test system: SNB-19
SNB-75 = test system: SNB-75
SR = test system: SR
T47D = test system: T47D
CAKI-1 = test system: CAKI-1

Measured: GI50

CCOC(=O)/C=C(/N=P(c1ccccc1)(c1ccccc1)c1ccccc1)C(F)(F)F
inactive: 786-0 > 10 µM | A549 > 10 µM | HL-60 > 10 µM | HOP-92 1.44 µM | Hs-578T > 10 µM | IGROV-1 > 10 µM | K562 > 10 µM | M14 > 10 µM | MDA-MB-435 > 10 µM | MDA-N > 10 µM | NCI-H226 > 10 µM | SF-295 > 10 µM | SF-539 > 10 µM | SK-MEL-2 > 10 µM | SN12C > 10 µM | SNB-19 > 10 µM | SNB-75 > 10 µM | SR > 10 µM | T47D 22.1 µM

CC(=O)OCC1OC(SC2=N/C(=C\c3cc4c(=O)c5ccccc5sc4s3)C(=O)N2c2ccccc2)C(OC(C)=O)C(OC(C)=O)C1OC(C)=O (stereo not given)
inactive: 786-0 > 100 µM | CAKI-1 > 100 µM | HL-60 20.1 µM | Hs-578T > 100 µM | IGROV-1 > 100 µM | K562 53.1 µM | MDA-MB-435 > 100 µM | MDA-N > 100 µM | NCI-H226 > 100 µM | SF-295 > 100 µM | SK-MEL-2 32 µM | SN12C > 100 µM | SNB-19 40.4 µM | SNB-75 65.8 µM | SR 42.2 µM | T47D > 100 µM

Cc1ccc(-n2cc(-c3ccc(Cl)cc3)c3c(NNC(=S)NCc4ccccc4)ncnc32)cc1
inactive: 786-0 9.77 µM | A549 4 µM | CAKI-1 5.46 µM | HL-60 6.98 µM | HOP-92 25.4 µM | Hs-578T 60.7 µM | IGROV-1 12.2 µM | K562 4.99 µM | M14 10.5 µM | MDA-MB-435 8.02 µM | MDA-N 14.9 µM | NCI-H226 92.7 µM | SF-295 6.76 µM | SF-539 13.6 µM | SK-MEL-2 3.17 µM | SN12C 7.21 µM | SNB-19 23.3 µM | SR 3.61 µM | T47D 24.8 µM

COC(=O)C1=C([C@H]2COC(C)(C)O2)[C@H]2C[C@@H]1[C@@H]1OC(C)(C)O[C@@H]12
inactive: 786-0 > 100 µM | A549 > 100 µM | HL-60 > 100 µM | HOP-92 38.7 µM | Hs-578T > 100 µM | IGROV-1 > 100 µM | K562 > 100 µM | M14 > 100 µM | MDA-MB-435 > 100 µM | MDA-N > 100 µM | NCI-H226 > 100 µM | SF-295 > 100 µM | SF-539 > 100 µM | SK-MEL-2 > 100 µM | SN12C > 100 µM | SNB-19 > 100 µM | SNB-75 > 100 µM | SR > 100 µM | T47D > 100 µM

COc1nc(C#CC2CCCCC2)nc(OC)n1
inactive: 786-0 1.69 µM | A549 3.95 µM | CAKI-1 3.39 µM | HL-60 1.12 µM | Hs-578T 3.58 µM | IGROV-1 3.79 µM | K562 3.92 µM | M14 2.38 µM | MDA-MB-435 2.08 µM | MDA-N 3.28 µM | SF-295 5.24 µM | SF-539 2.45 µM | SK-MEL-2 3.81 µM | SN12C 2.2 µM | SNB-19 16.6 µM | SNB-75 9.71 µM | SR 2.3 µM | T47D 31.7 µM

COCOc1cc(OC)ccc1C/C=N/O
inactive: 786-0 > 100 µM | A549 > 100 µM | CAKI-1 > 100 µM | HL-60 > 100 µM | HOP-92 > 100 µM | Hs-578T > 100 µM | IGROV-1 > 100 µM | K562 > 100 µM | M14 > 100 µM | MDA-MB-435 > 100 µM | MDA-N > 100 µM | NCI-H226 > 100 µM | SF-295 > 100 µM | SF-539 > 100 µM | SK-MEL-2 > 100 µM | SN12C > 100 µM | SNB-19 > 100 µM | SR > 100 µM | T47D > 100 µM

C[N+](C)(C)C1(C(=O)[O-])CC1
inactive: 786-0 > 100 µM | A549 > 100 µM | HL-60 > 100 µM | HOP-92 > 100 µM | Hs-578T > 100 µM | IGROV-1 > 100 µM | K562 > 100 µM | M14 > 100 µM | MDA-MB-435 > 100 µM | MDA-N > 100 µM | NCI-H226 > 100 µM | SF-295 > 100 µM | SF-539 > 100 µM | SN12C > 100 µM | SNB-19 > 100 µM | SNB-75 > 100 µM | SR > 100 µM | T47D 72.1 µM

O=C1C(Cl)=C(Oc2ccc([N+](=O)[O-])cc2)C(=O)c2c(O)ccc(O)c21
inactive: 786-0 67.9 µM | A549 > 100 µM | HL-60 4.65 µM | HOP-92 28.3 µM | Hs-578T > 100 µM | IGROV-1 > 100 µM | K562 13.3 µM | M14 > 47.8 µM | MDA-MB-435 > 47.5 µM | MDA-N 21 µM | NCI-H226 > 100 µM | SF-295 > 100 µM | SF-539 > 100 µM | SN12C 98.4 µM | SNB-19 > 100 µM | SNB-75 > 100 µM | SR 3.78 µM | T47D 29.9 µM

CCOC(=O)CNC(=O)C(Cc1ccccc1)NC(=O)OCc1ccccc1 (stereo not given) (Cbz-[ξF]-Gly-OEt)
inactive: 786-0 > 100 µM | A549 > 100 µM | HL-60 > 100 µM | HOP-92 > 100 µM | Hs-578T 70.8 µM | IGROV-1 > 100 µM | K562 > 100 µM | M14 > 100 µM | MDA-MB-435 > 100 µM | MDA-N > 100 µM | NCI-H226 > 100 µM | SF-295 > 100 µM | SN12C > 100 µM | SNB-19 > 100 µM | SNB-75 > 100 µM | SR > 100 µM | T47D 71.9 µM

[O-][n+]1onc2c1/C(=N/O)CCC2
inactive: 786-0 > 100 µM | A549 > 100 µM | CAKI-1 > 100 µM | HL-60 > 100 µM | Hs-578T > 100 µM | IGROV-1 > 100 µM | K562 > 100 µM | M14 > 100 µM | MDA-MB-435 > 100 µM | MDA-N > 100 µM | NCI-H226 > 100 µM | SF-295 > 100 µM | SF-539 > 100 µM | SK-MEL-2 > 100 µM | SN12C > 100 µM | SNB-19 > 100 µM | SNB-75 > 100 µM | SR > 100 µM | T47D > 100 µM

CCC(=O)n1c(=O)n(-c2ccc([N+](=O)[O-])cc2)c(=O)n1C(=O)CC
inactive: 786-0 > 100 µM | A549 > 100 µM | CAKI-1 > 100 µM | HL-60 > 100 µM | Hs-578T > 100 µM | IGROV-1 > 100 µM | K562 > 100 µM | M14 > 100 µM | MDA-MB-435 > 100 µM | MDA-N > 100 µM | NCI-H226 > 100 µM | SF-295 > 100 µM | SK-MEL-2 > 100 µM | SN12C > 100 µM | SNB-19 > 100 µM | SNB-75 > 100 µM | SR > 100 µM | T47D > 100 µM
